From patent publication US9701631B2, “TIP60 inhibitors” (The Trustees Of The University Of Pennsylvania, priority 2010, dated 2017)

How the values were obtained:
[1] = system: Treg suppression of T cell proliferation; assay: Treg suppression assay in vitro (T cell proliferation, 3 days, CFSE dye, flow cytometry); assay type: cell-based; details: for enhancement of suppression of Treg in vitro: 500x dilution of 10 mM solution (20 micromolar), FIG. 10; for percentage of proliferated cells: Treg:Teff=1:1
Text: FIGS. 8A-D are flow cytometry dataplots showing the enhancement of TIP60 inhibitor B7 suppression of Treg in vitro. Individual peaks reflect number of cells divisions under the standard test conditions (3 days), where the cell populations are dyed with CFSE (carboxyfluorescen diacetate, succimidyl ester). FIG. 8A are the data for DMSO without B7; FIG. 8B are the data for B7-1000×; FIG. 8C are the data for B7-4000×; and FIG. 8D are the data for B7-8000. In each case, the 1000×/4000×/8000× refers to the dilution factor of the B7, from an original 10 mM solution of B7; e.g, 1000× represents a solution diluted by a factor of 1000, so as to result in a 10 micromolar solution. The numbers in the upper left corner of the plot (e.g., 88, 81, 74, 65, and 37 of FIG. 8A) refer to the measured percentage of proliferated cells.
FIGS. 10A-E are flow cytometry dataplots showing the enhancement of TIP60 inhibitors B7 suppression of Treg in vitro. FIG. 10A are the data for DMSO without any B7-type inhibitor; FIG. 10B are the data for B7-500×; FIG. 10C are the data for B7A-500×; FIG. 10D are the data for B7B-500; and FIG. 10E are the data for B7C-500×. In each case, the 500× refers to the dilution factor of the B7/B7A/B7B/B7C, from an original 10 mM solution of the compound; e.g, 500× represents a solution diluted by a factor of 500, so as to result in a 20 micromolar solution.
Several exemplary compounds of the present invention were screened at 10 μg/ml in vitro, at varying Treg:T cell ratios, using standard cell proliferation techniques (3 days, using CSFE dyes). Such techniques are well understood by those skilled in the art. For example, see Akimova T, Ge G, Golovina T, Mikheeva T, Wang L, Riley J L, Hancock W W., “Histone/protein deacetylase inhibitors increase suppressive functions of human FOXP3+ Tregs,” Clin Immunol. 2010 September; 136(3):348-63; Tao R, Hancock W W., Resistance of FOXP3+ regulatory T cells to Nur77-induced apoptosis promotes allograft survival,” PLoS One. 2008 May 28; 3(5):e2321; Tao R, Wang L, Murphy K M, Fraser C C, Hancock W W., “Regulatory T cell expression of herpesvirus entry mediator suppresses the function of B and T lymphocyte attenuator-positive effector T cells.,” J. Immunol. 2008 May 15; 180(10):6649-55; and Tao R, de Zoeten E F, Ozkaynak E, Chen C, Wang L, Porrett P M, Li B, Turka L A, Olson E N, Greene M I, Wells A D, Hancock W W., “Deacetylase inhibition promotes the generation and function of regulatory T cells,” Nat. Med. 2007 November; 13(11):1299-307 for the protocols used herein. Each of these references is incorporated by reference herein, at least for this purpose.
T cell proliferation was unimpaired in the absence of Treg cells (see left panels in FIG. 8A-D), but was increasingly impaired at increasing Treg concentration (for example, in FIG. 8A, increasing Treg:Tcell ratio from 0:1 to 1:1 reduced proliferation from 88% to 37% under otherwise identical conditions). […] Efficacy was also seen at 1 μg/ml for some compounds.

FOXP3 = FOXP3 bound on chromatin in SZ-4 T cells (Western blot); assay type: cell-based; details: FIG. 9
TIP60 = molecular target: T1, TIP60 (Homo sapiens, UniProt Q92993); assay: TIP60 activity by acetylation of TIP60 or its substrate FOXP3 in transfected 293T cells (Ac-K immunoprecipitation, Western blot); assay type: cell-based; details: 4 hours
T1 construct: expressed in transfected cells; host or cells: 293T cells
Experimental: FIG. 11 illustrate the effect of B7G on TIP60. TIP60 activity was assessed by examining acetylation of TIP60 or its substrate FOXP3. Both TIP60 and FOXP3 were overexpressed in 293T cells. Acetylated proteins were first immunoprecipitated with the acetyl-lysine specific antibody Ac-K and then blotted with HRP conjugated antibodies to expression tags (HA for FOXP3 or FLAG for TIP60).
TIP60 is known to have acetyl transferase activity to acetylate itself (auto-acetylation) or substrates including FOXP3. To examine activity of B7G on TIP60, 293T cells were transfected with Flag-tagged TIP60 and HA-tagged FOXP3. 24 hours after transfection, cells were treated with various concentrations of B7G for 4 hours before cell lysates were collected. Acetylated proteins were precipitated by anti-acetyl lysine antibody Ac-K. FOXP3 and TIP60 in the lysate or precipitated by Ac-K antibody were identified by anti-HA-HRP and anti-FLAG-HRP respectively.

[2] = system: dextran sodium sulfate (DSS) model of colitis; assay: DSS model of established colitis in mice, remedial treatment; assay type: in vivo
Experimental: FIGS. 12A-C are the result of experiments described in Example 5. […] FIG. 12C provide graphical data for weight loss, bleeding score, and stool consistency (i.e., higher score reflects higher levels of diarrhea), wherein the mice were first subjected to DSS irritation, then subset populations were remedially treated after 8 days with the compound having Structure B7.
In a first test, the effects of exposure to dextran sodium sulfate (DSS) were evaluated, which results in a partially CD4-dependent inflammatory model of colitis, in wildtype (WT) versus TIP60dn C57BL/6 mice (8 mice/group).
Data were also generated using the compound of Structure B7 in the DSS model, in an experiment designed to test the ability of TIP60 inhibitor therapy to reverse established colitis by waiting until mice had ˜15% weight loss. In marked contrast to use of carrier DMSO alone, TIP60 inhibitor therapy (2 mg/kg/d, i.p.) reversed weight loss (p<0.01), blood in the stool (p<0.01) and diarrhea (p<0.005) (see FIG. 12C) and maintained colon length (p<0.01).

[3] = 2 mg/kg/d i.p., vs carrier DMSO, p<0.01

T1 sequence (Q92993 whole entry, species assumed): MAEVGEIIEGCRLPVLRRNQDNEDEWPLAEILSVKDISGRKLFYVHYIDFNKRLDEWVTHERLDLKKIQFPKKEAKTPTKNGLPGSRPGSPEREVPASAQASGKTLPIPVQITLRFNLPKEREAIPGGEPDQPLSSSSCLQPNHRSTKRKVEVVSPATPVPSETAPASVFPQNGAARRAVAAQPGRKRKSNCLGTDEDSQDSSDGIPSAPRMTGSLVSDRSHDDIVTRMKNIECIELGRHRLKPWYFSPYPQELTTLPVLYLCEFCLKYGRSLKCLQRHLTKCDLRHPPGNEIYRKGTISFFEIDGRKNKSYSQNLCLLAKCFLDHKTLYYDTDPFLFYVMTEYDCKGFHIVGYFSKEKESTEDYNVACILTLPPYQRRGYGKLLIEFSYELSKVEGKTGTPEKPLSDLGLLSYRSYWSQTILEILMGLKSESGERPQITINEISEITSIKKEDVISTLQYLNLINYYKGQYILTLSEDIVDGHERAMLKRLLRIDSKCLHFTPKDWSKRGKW

`O=C(Nc1ccc(Cl)cc1)C1CC(=O)N(CCc2ccc(Cl)cc2)C1` (stereo not drawn) [B7A] was tested, and the “enhancement of suppression of Treg in vitro” value (“enhancement … in vitro” for short) [1] was “enhancement”.

For `COc1ccc(NC(=O)C2CC(=O)N(CCc3ccc(Cl)cc3)C2)cc1` (stereo not drawn) [B7B], the “enhancement … in vitro” value [1] was “enhancement”.

`Cc1ccc2cc(NC(=O)C3CC(=O)N(CCc4ccc(Cl)cc4)C3)ccc2n1` (stereo not drawn) [B7C] was tested, and the “FOXP3 bound on chromatin” value (FOXP3) was “intervening with FOXP3 bound on chromatin” and the “enhancement … in vitro” value [1] was “enhancement”.

In the case of `COc1ccc(CCN2CC(C(=O)Nc3ccc(F)c(Cl)c3)CC2=O)cc1OC` (stereo not drawn) [B7G], the “Acetylated FOXP3 (HA-HRP blot of Ac-K precipitated proteins)” value (TIP60; 32 μg/ml) is reported as “reduced significantly”, the “Acetylated TIP60 (FLAG-HRP blot of Ac-K precipitated proteins)” value (TIP60; 32 μg/ml) is reported as “reduced significantly” and the TIP60 auto-acetylation (TIP60; lower concentration than 32 μg/ml) is reported as “slightly increase”. For the same molecule, the “FOXP3 expression level in total cell lysate” value (TIP60; various concentrations) was “not significantly affected” and the “TIP60 expression level in total cell lysate” value (TIP60; various concentrations) was “not significantly affected”.

With `Cc1ccc(NC(=O)C2CC(=O)N(CCc3ccc(Cl)cc3)C2)cc1` (stereo not drawn) [B7] the weight loss ([2]; 2 mg/kg/d i.p., started at ~15% weight loss, vs carrier DMSO, p<0.01) was “reversed”, the diarrhea ([2]; 2 mg/kg/d i.p., vs carrier DMSO, p<0.005) was “reversed” and the “blood in the stool” value [2, 3] was “reversed”. The colon length [2, 3] was “maintained”, the “colon length relative to that of an unstressed control animal” value ([2]; single animal, 3% DSS then B7) was “about 94%” and the “spleen size relative to control animal” value ([2]; single remediated animal, 3% DSS then B7) was “comparable in size to that of the control”. For the same molecule, the “enhancement … in vitro” value [1] was “enhancement”, the “T cell proliferation in the absence of Treg cells” value ([1]; Treg:Tcell 0:1, left panels FIG. 8A-D) was “unimpaired” and the “percentage of proliferated cells” value ([1]; FIG. 8B (B7-1000x dilution of 10 mM, 10 μM), highest B7 dosage) was 25%. For the same molecule, the “percentage of proliferated cells” value ([1]; FIG. 8C (B7-4000x dilution of 10 mM), middle B7 dosage) was 30%, the “percentage of proliferated cells” value ([1]; FIG. 8D (B7-8000x dilution of 10 mM), lowest B7 dosage) was 37% and the “Treg activity (decreasing Tcell proliferation)” value ([1]; dose dependent, varying Treg:T cell ratios) was “enhanced the Treg activity”.
